System: 926638-142-R-J1-PDC complex spheroid viability
Assay: Anticancer human tumor 926638-142-R-J1-PDC patient-derived endometrial carcinoma cell line growth inhibition [POLQ]
Conditions: for IC50: curve of first compound; for viability, T/C: stronger effect = lower value
Summary of the method: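 Three-cell-type spheroids modelling solid tumor plus stroma served as the readout system; POL inhibitors were tested individually and in combination, concentration ranges set by clinical Cmax where known.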

[1] = second compound 0.0316 µM, first compound 0.0316 µM
[2] = second compound 0.0316 µM, first compound 0.1 µM
[3] = second compound 0.0316 µM, first compound 0.316 µM
[4] = second compound 0.0316 µM, first compound 1 µM
[5] = second compound 0.0316 µM, first compound 3.16 µM
[6] = second compound 0.0316 µM, first compound 10 µM
[7] = second compound 0.1 µM, first compound 0.0316 µM
[8] = second compound 0.1 µM, first compound 0.1 µM
[9] = second compound 0.1 µM, first compound 0.316 µM
[10] = second compound 0.1 µM, first compound 1 µM
[11] = second compound 0.1 µM, first compound 3.16 µM
[12] = second compound 0.1 µM, first compound 10 µM
[13] = second compound 0.316 µM, first compound 0.0316 µM
[14] = second compound 0.316 µM, first compound 0.1 µM
[15] = second compound 0.316 µM, first compound 0.316 µM
[16] = second compound 0.316 µM, first compound 1 µM
[17] = second compound 0.316 µM, first compound 3.16 µM
[18] = second compound 0.316 µM, first compound 10 µM
[19] = second compound 1 µM, first compound 0.0316 µM
[20] = second compound 1 µM, first compound 0.1 µM
[21] = second compound 1 µM, first compound 0.316 µM
[22] = second compound 1 µM, first compound 1 µM
[23] = second compound 1 µM, first compound 3.16 µM
[24] = second compound 1 µM, first compound 10 µM
[25] = second compound 3.16 µM, first compound 0.0316 µM
[26] = second compound 3.16 µM, first compound 0.1 µM
[27] = second compound 3.16 µM, first compound 0.316 µM
[28] = second compound 3.16 µM, first compound 1 µM
[29] = second compound 3.16 µM, first compound 3.16 µM
[30] = second compound 3.16 µM, first compound 10 µM
[31] = second compound 10 µM, first compound 0.0316 µM
[32] = second compound 10 µM, first compound 0.1 µM
[33] = second compound 10 µM, first compound 0.316 µM
[34] = second compound 10 µM, first compound 1 µM
[35] = second compound 10 µM, first compound 3.16 µM
[36] = second compound 10 µM, first compound 10 µM
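Note: spheroids exposed to drugs for one week before readout.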
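Throughout, for viability, T/C: percent viability relative to DMSO vehicle control wells set as 100%.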

COc1cc(C2c3cc4c(cc3C(OC3OC5COC(C)OC5C(O)C3O)C3COC(=O)C23)OCO4)cc(OC)c1O (stereo not drawn) + Nc1ccc(C#CCN(C(=O)Cc2ncc(C(F)(F)F)cc2C(F)(F)F)c2ccc(F)cc2)nn1
IC50 (second compound 0.0316 µM): > 10 µM
IC50 (second compound 0.1 µM): > 10 µM
IC50 (second compound 0.316 µM): > 10 µM
IC50 (second compound 1 µM): > 10 µM
IC50 (second compound 3.16 µM): > 10 µM
IC50 (second compound 10 µM): > 10 µM
viability, T/C [1]: 99.2%
viability, T/C [2]: 81.6%
viability, T/C [3]: 80.3%
viability, T/C [4]: 73.1%
viability, T/C [5]: 77.8%
viability, T/C [6]: 58.1%
viability, T/C [7]: 96.6%
viability, T/C [8]: 101%
viability, T/C [9]: 70.3%
viability, T/C [10]: 67.4%
viability, T/C [11]: 80%
viability, T/C [12]: 53.5%
viability, T/C [13]: 106%
viability, T/C [14]: 77.7%
viability, T/C [15]: 71.7%
viability, T/C [16]: 69.4%
viability, T/C [17]: 69.7%
viability, T/C [18]: 54%
viability, T/C [19]: 102%
viability, T/C [20]: 83.1%
viability, T/C [21]: 80.4%
viability, T/C [22]: 74.4%
viability, T/C [23]: 69.3%
viability, T/C [24]: 57%
viability, T/C [25]: 83.3%
viability, T/C [26]: 87.2%
viability, T/C [27]: 71.2%
viability, T/C [28]: 63.3%
viability, T/C [29]: 76.1%
viability, T/C [30]: 51%
viability, T/C [31]: 94.9%
viability, T/C [32]: 82.6%
viability, T/C [33]: 73.3%
viability, T/C [34]: 63%
viability, T/C [35]: 69%
viability, T/C [36]: 53.4%

O=C(Nc1ccc(O)c(NS(=O)(=O)c2ccc(F)cc2)c1)c1ccc(-c2ccccc2)cc1 + Nc1ccc(C#CCN(C(=O)Cc2ncc(C(F)(F)F)cc2C(F)(F)F)c2ccc(F)cc2)nn1
IC50 (second compound 0.0316 µM): > 10 µM
IC50 (second compound 0.1 µM): > 10 µM
IC50 (second compound 0.316 µM): > 10 µM
IC50 (second compound 1 µM): > 10 µM
IC50 (second compound 3.16 µM): > 10 µM
IC50 (second compound 10 µM): > 10 µM
viability, T/C [1]: 106%
viability, T/C [2]: 101%
viability, T/C [3]: 80.8%
viability, T/C [4]: 110%
viability, T/C [5]: 95.7%
viability, T/C [6]: 82.8%
viability, T/C [7]: 105%
viability, T/C [8]: 103%
viability, T/C [9]: 107%
viability, T/C [10]: 108%
viability, T/C [11]: 96.4%
viability, T/C [12]: 81.3%
viability, T/C [13]: 114%
viability, T/C [14]: 102%
viability, T/C [15]: 99.5%
viability, T/C [16]: 116%
viability, T/C [17]: 109%
viability, T/C [18]: 81.1%
viability, T/C [19]: 98%
viability, T/C [20]: 106%
viability, T/C [21]: 103%
viability, T/C [22]: 105%
viability, T/C [23]: 105%
viability, T/C [24]: 71.9%
viability, T/C [25]: 100%
viability, T/C [26]: 82.4%
viability, T/C [27]: 96.1%
viability, T/C [28]: 100%
viability, T/C [29]: 106%
viability, T/C [30]: 67.6%
viability, T/C [31]: 92.2%
viability, T/C [32]: 92.8%
viability, T/C [33]: 89.5%
viability, T/C [34]: 104%
viability, T/C [35]: 104%
viability, T/C [36]: 72.5%

C#Cc1c(F)ccc2cc(O)cc(-c3ncc4c(N5CC6CCC(C5)N6)nc(OCC56CCCN5CC(F)C6)nc4c3F)c12 (stereo not drawn) + Cc1cccc(N(C)C(=O)C2C(O)CCN2c2nc(C)cc(C(F)(F)F)c2C#N)c1
IC50 (second compound 0.0316 µM): > 10 µM
IC50 (second compound 0.1 µM): > 10 µM
IC50 (second compound 0.316 µM): > 10 µM
IC50 (second compound 1 µM): > 10 µM
IC50 (second compound 3.16 µM): > 10 µM
IC50 (second compound 10 µM): > 10 µM
viability, T/C [1]: 90.9%
viability, T/C [2]: 76.7%
viability, T/C [3]: 69.9%
viability, T/C [4]: 63.8%
viability, T/C [5]: 58.3%
viability, T/C [6]: 56.9%
viability, T/C [7]: 87.2%
viability, T/C [8]: 96.2%
viability, T/C [9]: 84.6%
viability, T/C [10]: 71.9%
viability, T/C [11]: 60.5%
viability, T/C [12]: 63.9%
viability, T/C [13]: 86.2%
viability, T/C [14]: 75.1%
viability, T/C [15]: 78.2%
viability, T/C [16]: 71.8%
viability, T/C [17]: 54%
viability, T/C [18]: 61.7%
viability, T/C [19]: 95.2%
viability, T/C [20]: 76%
viability, T/C [21]: 66.9%
viability, T/C [22]: 76.2%
viability, T/C [23]: 70.9%
viability, T/C [24]: 52.5%
viability, T/C [25]: 81.1%
viability, T/C [26]: 84.3%
viability, T/C [27]: 89.2%
viability, T/C [28]: 58.5%
viability, T/C [29]: 60.1%
viability, T/C [30]: 53.5%
viability, T/C [31]: 84.8%
viability, T/C [32]: 79%
viability, T/C [33]: 67.2%
viability, T/C [34]: 71.8%
viability, T/C [35]: 58.4%
viability, T/C [36]: 66.5%

O=C(c1cc(Cc2n[nH]c(=O)c3ccccc23)ccc1F)N1CCN(C(=O)C2CC2)CC1 + Cc1cccc(N(C)C(=O)C2C(O)CCN2c2nc(C)cc(C(F)(F)F)c2C#N)c1
IC50 (second compound 0.0316 µM): > 10 µM
IC50 (second compound 0.1 µM): > 10 µM
IC50 (second compound 0.316 µM): > 10 µM
IC50 (second compound 1 µM): > 10 µM
IC50 (second compound 3.16 µM): > 10 µM
IC50 (second compound 10 µM): > 10 µM
viability, T/C [1]: 102%
viability, T/C [2]: 93%
viability, T/C [3]: 92.1%
viability, T/C [4]: 87.2%
viability, T/C [5]: 74.5%
viability, T/C [6]: 79.1%
viability, T/C [7]: 114%
viability, T/C [8]: 87.8%
viability, T/C [9]: 92.4%
viability, T/C [10]: 88.3%
viability, T/C [11]: 77.6%
viability, T/C [12]: 79.1%
viability, T/C [13]: 101%
viability, T/C [14]: 91.6%
viability, T/C [15]: 82.9%
viability, T/C [16]: 85.9%
viability, T/C [17]: 85.8%
viability, T/C [18]: 86.5%
viability, T/C [19]: 86.5%
viability, T/C [20]: 83.5%
viability, T/C [21]: 91.5%
viability, T/C [22]: 91.8%
viability, T/C [23]: 67.5%
viability, T/C [24]: 87.2%
viability, T/C [25]: 76.4%
viability, T/C [26]: 98.2%
viability, T/C [27]: 101%
viability, T/C [28]: 79.9%
viability, T/C [29]: 86.3%
viability, T/C [30]: 69.8%
viability, T/C [31]: 72.3%
viability, T/C [32]: 80%
viability, T/C [33]: 78.9%
viability, T/C [34]: 75.7%
viability, T/C [35]: 69.8%
viability, T/C [36]: 71.1%

From PubChem BioAssay AID1963826 (Molecular Pharmacology Branch, DTP, NCI, 2024)
